The text below walks through data of patent US20240366598A1, “GLUCOSE-DEPENDENT INSULINOTROPIC POLYPEPTIDE RECEPTOR ANTAGONISTS AND USES THEREOF” (Pfizer Inc., priority 2023, published 2024).

This experiment concerns the target T1, human Glucose-dependent Insulinotropic Polypeptide Receptor (hGIPR) (Homo sapiens, UniProt P48546).
T1 sequence (P48546 22-466): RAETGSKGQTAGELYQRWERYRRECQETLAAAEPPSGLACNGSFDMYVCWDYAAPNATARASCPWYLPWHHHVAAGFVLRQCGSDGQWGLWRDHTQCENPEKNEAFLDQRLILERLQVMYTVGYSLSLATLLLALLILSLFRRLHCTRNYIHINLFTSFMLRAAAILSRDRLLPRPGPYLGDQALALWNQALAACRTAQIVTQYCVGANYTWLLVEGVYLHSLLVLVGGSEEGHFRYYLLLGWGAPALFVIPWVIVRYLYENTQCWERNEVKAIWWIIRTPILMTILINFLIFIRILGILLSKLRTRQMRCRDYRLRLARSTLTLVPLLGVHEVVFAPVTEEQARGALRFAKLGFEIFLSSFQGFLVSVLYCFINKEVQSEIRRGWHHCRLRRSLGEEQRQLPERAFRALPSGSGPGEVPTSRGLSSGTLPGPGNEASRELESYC
The experiment in a line: Functional in vitro GIPR antagonist potency assay (cAMP HTRF, CHO-K1 cells stably expressing hGIPR, hGIP stimulation at about EC80). Format: cell-based. The conditions noted are these: geometric mean, hGIP at estimated EC80, examples marked ^2: overall geometric mean of multiple forms (including salts) tested. The method in brief:
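CHO-K1 cells expressing hGIPR (2,000 per well) in HBSS/HEPES/0.1% BSA with 200 μM IBMX were preincubated 2 h at 37 °C with an 11-point compound series (0.5% DMSO). hGIP at about EC80 was then added for 30 min, and cAMP was read by HTRF (665/620 nm). Data were normalized between hGIP alone and full antagonism by a reference antagonist at 80 μM.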
As for `O=C(O)c1ccc(-c2ccc(NC(=O)[C@H]3CCCN3C(=O)Nc3cccc(Cl)c3)cc2)cc1` [Example 74, 4′-({1-[(3-chlorophenyl)carbamoyl]-D-prolyl}amino)[1,1′-biphenyl]-4-carboxylic acid], the IC50 (as a rule, the concentration that gives 50% inhibition) is 82 nM. The figure for `CC(C)c1ccc(NC(=O)N2CCC[C@@H]2C(=O)Nc2ccc(-c3cccc(C(=O)O)n3)c(F)c2)cc1` [Example 75, 6-{2-fluoro-4-[(1-{[4-(propan-2-yl)phenyl]carbamoyl}-D-prolyl)amino]phenyl}pyridine-2-carboxylic acid] is 140 nM. The value for `Cc1cc(NC(=O)[C@H]2CCCN2C(=O)Nc2ccc(C(C)C)cc2)ccc1-c1ccc(C(=O)O)cc1` [Example 76, 2′-methyl-4′-[(1-{[4-(propan-2-yl)phenyl]carbamoyl}-D-prolyl)amino][1,1′-biphenyl]-4-carboxylic acid] was 9.9 nM. The figure for `CC(C)c1ccc(NC(=O)N2CCC[C@@H]2C(=O)Nc2ccc(-c3cccc(C(=O)O)c3)cn2)cc1` [Example 77, 3-{6-[(1-{[4-(propan-2-yl)phenyl]carbamoyl}-D-prolyl)amino]pyridin-3-yl}benzoic acid] is 16 nM. With `CC(C)c1ccc(NC(=O)N2CCC[C@@H]2C(=O)Nc2ccc(-c3cccc(C(=O)O)c3)nc2)cc1` [Example 78, 3-{5-[(1-{[4-(propan-2-yl)phenyl]carbamoyl}-D-prolyl)amino]pyridin-2-yl}benzoic acid], the IC50 was 145 nM. The value for `CC(C)c1ccc(NC(=O)N2CCC[C@@H]2C(=O)Nc2ccc(-c3ccc(C(=O)O)cc3Cl)cc2)cc1` [Example 79, 2-chloro-4′-[(1-{[4-(propan-2-yl)phenyl]carbamoyl}-D-prolyl)amino][1,1′-biphenyl]-4-carboxylic acid] was 15 nM.

For `CC(C)c1ccc(NC(=O)N2CCC[C@@H]2C(=O)Nc2ccc(-c3c(F)ccc(C(=O)O)c3F)cc2)cc1` [Example 80, 2,6-difluoro-4′-[(1-{[4-(propan-2-yl)phenyl]carbamoyl}-D-prolyl)amino][1,1′-biphenyl]-3-carboxylic acid], the IC50 is 400 nM. `COc1cc(C(=O)O)c(F)cc1-c1ccc(NC(=O)[C@H]2CCCN2C(=O)Nc2ccc(C(C)C)cc2)cc1` [Example 81, 5-fluoro-2-methoxy-4′-[(1-{[4-(propan-2-yl)phenyl]carbamoyl}-D-prolyl)amino][1,1′-biphenyl]-4-carboxylic acid]: the IC50 was 210 nM.

For the molecule `CC(C)c1ccc(NC(=O)N2CCC[C@@H]2C(=O)Nc2ccc(-c3cc(F)c(C(=O)O)cc3F)cc2)cc1` [Example 82, 2,5-difluoro-4′-[(1-{[4-(propan-2-yl)phenyl]carbamoyl}-D-prolyl)amino][1,1′-biphenyl]-4-carboxylic acid], the IC50 is 27 nM. As to `CC(C)c1ccc(NC(=O)N2CCC[C@@H]2C(=O)Nc2ccc(-c3cc(F)c(C(=O)O)c(Cl)c3)cc2)cc1` [Example 83, 3-chloro-5-fluoro-4′-[(1-{[4-(propan-2-yl)phenyl]carbamoyl}-D-prolyl)amino][1,1′-biphenyl]-4-carboxylic acid], the IC50 was 230 nM. `Cc1cc(C(=O)O)c(F)cc1-c1ccc(NC(=O)[C@H]2CCCN2C(=O)Nc2ccc(C(C)C)cc2)cc1` [Example 84, 5-fluoro-2-methyl-4′-[(1-{[4-(propan-2-yl)phenyl]carbamoyl}-D-prolyl)amino][1,1′-biphenyl]-4-carboxylic acid]: the IC50 was 19 nM. On to `CC(C)c1ccc(NC(=O)N2CCC[C@@H]2C(=O)Nc2ccc(-c3cc(F)cc(C(=O)O)c3)cc2)cc1` [Example 85, 5-fluoro-4′-[(1-{[4-(propan-2-yl)phenyl]carbamoyl}-D-prolyl)amino][1,1′-biphenyl]-3-carboxylic acid], for which the half-inhibitory concentration (IC50) is 260 nM. For the molecule `Cc1cc(-c2ccc(NC(=O)[C@H]3CCCN3C(=O)Nc3ccc(C(C)C)cc3)cc2)c(F)cc1C(=O)O` [Example 86, 2-fluoro-5-methyl-4′-[(1-{[4-(propan-2-yl)phenyl]carbamoyl}-D-prolyl)amino][1,1′-biphenyl]-4-carboxylic acid], the IC50 is 7.5 nM.

In the case of `Cc1c(C(=O)O)ccc(-c2ccc(NC(=O)[C@H]3CCCN3C(=O)Nc3ccc(C(C)C)cc3)cc2)c1F` [Example 87, 2-fluoro-3-methyl-4′-[(1-{[4-(propan-2-yl)phenyl]carbamoyl}-D-prolyl)amino][1,1′-biphenyl]-4-carboxylic acid], the IC50 was 11 nM.

Turning to `CC(C)c1ccc(NC(=O)N2CCC[C@@H]2C(=O)Nc2ccc(-c3ccc(F)c(C(=O)O)c3F)cc2)cc1` [Example 88, 2,4-difluoro-4′-[(1-{[4-(propan-2-yl)phenyl]carbamoyl}-D-prolyl)amino][1,1′-biphenyl]-3-carboxylic acid], the IC50 was 430 nM. The value for `COc1cc(-c2ccc(NC(=O)[C@H]3CCCN3C(=O)Nc3ccc(C(C)C)cc3)cc2)c(F)cc1C(=O)O` [Example 89, 2-fluoro-5-methoxy-4′-[(1-{[4-(propan-2-yl)phenyl]carbamoyl}-D-prolyl)amino][1,1′-biphenyl]-4-carboxylic acid] was 18 nM. Consider `Cc1cc(C(=O)O)cc(Cl)c1-c1ccc(NC(=O)[C@H]2CCCN2C(=O)Nc2ccc(C(C)C)cc2)cc1` [Example 90, 2-chloro-6-methyl-4′-[(1-{[4-(propan-2-yl)phenyl]carbamoyl}-D-prolyl)amino][1,1′-biphenyl]-4-carboxylic acid], for which the IC50 was 45 nM.

Take `CC(C)c1ccc(NC(=O)N2CCC[C@@H]2C(=O)Nc2ccc(-c3ccc(C(N)=O)cc3)cc2)cc1` [Example 91, (2R)-N^2-(4′-carbamoyl[1,1′-biphenyl]-4-yl)-N^1-[4-(propan-2-yl)phenyl]pyrrolidine-1,2-dicarboxamide]: the IC50 was 39 nM. For `COc1cc(C(=O)O)cc(C)c1-c1ccc(NC(=O)[C@H]2CCCN2C(=O)Nc2ccc(C(C)C)cc2)cc1` [Example 92, 2-methoxy-6-methyl-4′-[(1-{[4-(propan-2-yl)phenyl]carbamoyl}-D-prolyl)amino][1,1′-biphenyl]-4-carboxylic acid], the IC50 was 87 nM.

For the molecule `COc1ccc(-c2ccc(NC(=O)[C@H]3CCCN3C(=O)Nc3ccc(C(C)C)cc3)cc2)cc1C(=O)O` [Example 93, 4-methoxy-4′-[(1-{[4-(propan-2-yl)phenyl]carbamoyl}-D-prolyl)amino][1,1′-biphenyl]-3-carboxylic acid], the concentration for half-maximal inhibition (IC50) was 79 nM. As to `Cc1ccc(C(=O)O)cc1-c1ccc(NC(=O)[C@H]2CCCN2C(=O)Nc2ccc(C(C)C)cc2)cc1` [Example 94, 6-methyl-4′-[(1-{[4-(propan-2-yl)phenyl]carbamoyl}-D-prolyl)amino][1,1′-biphenyl]-3-carboxylic acid], the IC50 is 190 nM.

On to `CCc1cc(-c2ccc(NC(=O)[C@H]3CCCN3C(=O)Nc3ccc(C(C)C)cc3)cc2)ccc1C(=O)O` [Example 95, 3-ethyl-4′-[(1-{[4-(propan-2-yl)phenyl]carbamoyl}-D-prolyl)amino][1,1′-biphenyl]-4-carboxylic acid], for which the IC50 is 13 nM.

Turning to `CC(C)c1ccc(NC(=O)N2CCC[C@@H]2C(=O)Nc2ccc(-c3ccc(O)c(Cl)c3)cc2)cc1` [Example 96, (2R)-N^2-(3′-chloro-4′-hydroxy[1,1′-biphenyl]-4-yl)-N^1-[4-(propan-2-yl)phenyl]pyrrolidine-1,2-dicarboxamide], the IC50 was 180 nM. Consider `Cc1cc(O)ccc1-c1ccc(NC(=O)[C@H]2CCCN2C(=O)Nc2ccc(C(C)C)cc2)cc1` [Example 97, (2R)-N^2-(4′-hydroxy-2′-methyl[1,1′-biphenyl]-4-yl)-N^1-[4-(propan-2-yl)phenyl]pyrrolidine-1,2-dicarboxamide], for which the IC50 was 230 nM. Consider `CC(C)c1ccc(NC(=O)N2CCC[C@@H]2C(=O)Nc2ccc(-c3cc(Cl)c(C(=O)O)cc3F)cc2)cc1` [Example 98, 5-chloro-2-fluoro-4′-[(1-{[4-(propan-2-yl)phenyl]carbamoyl}-D-prolyl)amino][1,1′-biphenyl]-4-carboxylic acid], for which the IC50 is 30 nM.

As to `CC(C)c1ccc(NC(=O)N2CCC[C@@H]2C(=O)Nc2ccc(-c3cc(F)c(O)c(F)c3)cc2)cc1` [Example 99, (2R)-N^2-(3′,5′-difluoro-4′-hydroxy[1,1′-biphenyl]-4-yl)-N^1-[4-(propan-2-yl)phenyl]pyrrolidine-1,2-dicarboxamide], the IC50 was 18 nM.

With `CC(C)c1ccc(NC(=O)N2CCC[C@@H]2C(=O)Nc2ccc(-c3ccc(O)c(C#N)c3)cc2)cc1` [Example 100, (2R)-N^2-(3′-cyano-4′-hydroxy[1,1′-biphenyl]-4-yl)-N^1-[4-(propan-2-yl)phenyl]pyrrolidine-1,2-dicarboxamide], the IC50 was 27 nM. The value for `O=C(O)c1ccc(-c2ccc(NC(=O)[C@H]3CCCN3C(=O)Nc3cnc(C(F)(F)F)nc3)cc2)cc1` [Example 101, 4′-[(1-{[2-(trifluoromethyl)pyrimidin-5-yl]carbamoyl}-D-prolyl)amino][1,1′-biphenyl]-4-carboxylic acid] was 92 nM. The value for `Cc1nc(NC(=O)N2CCC[C@@H]2C(=O)Nc2ccc(-c3ccc(C(=O)O)cc3)cc2)ccc1C(C)C` [Example 102, 4′-[(1-{[6-methyl-5-(propan-2-yl)pyridin-2-yl]carbamoyl}-D-prolyl)amino][1,1′-biphenyl]-4-carboxylic acid] was 690 nM.
